Assay results from patent US7105520B2, “Phenylalanine derivatives” (Ajinomoto Co., Inc., priority 2000, dated 2006).

What was measured:
[1] = molecular target: T1, integrin α 4β7 (Homo sapiens, UniProt P13612+P26010); experiment: VCAM antagonistic activity (VCAM-1/α4β7 binding assay), RPMI-8866 cells binding to VCAM-1; assay type: cell-based; conditions: RPMI-8866 cells (human B cells) binding to recombinant human VCAM-1; binding buffer containing 4 mM of MnCl2; room temperature, 30 minutes; read-out: VCAM-1/α 4 β 7 linking antagonization activity IC50
T1 construct: lymphoma cell strain RPMI-8866 of human B cells, known to express integrin α 4β7; endogenous in cells; host or cells: RPMI-8866 (human B lymphoma cell line)
T1 sequence (P13612 34-1032): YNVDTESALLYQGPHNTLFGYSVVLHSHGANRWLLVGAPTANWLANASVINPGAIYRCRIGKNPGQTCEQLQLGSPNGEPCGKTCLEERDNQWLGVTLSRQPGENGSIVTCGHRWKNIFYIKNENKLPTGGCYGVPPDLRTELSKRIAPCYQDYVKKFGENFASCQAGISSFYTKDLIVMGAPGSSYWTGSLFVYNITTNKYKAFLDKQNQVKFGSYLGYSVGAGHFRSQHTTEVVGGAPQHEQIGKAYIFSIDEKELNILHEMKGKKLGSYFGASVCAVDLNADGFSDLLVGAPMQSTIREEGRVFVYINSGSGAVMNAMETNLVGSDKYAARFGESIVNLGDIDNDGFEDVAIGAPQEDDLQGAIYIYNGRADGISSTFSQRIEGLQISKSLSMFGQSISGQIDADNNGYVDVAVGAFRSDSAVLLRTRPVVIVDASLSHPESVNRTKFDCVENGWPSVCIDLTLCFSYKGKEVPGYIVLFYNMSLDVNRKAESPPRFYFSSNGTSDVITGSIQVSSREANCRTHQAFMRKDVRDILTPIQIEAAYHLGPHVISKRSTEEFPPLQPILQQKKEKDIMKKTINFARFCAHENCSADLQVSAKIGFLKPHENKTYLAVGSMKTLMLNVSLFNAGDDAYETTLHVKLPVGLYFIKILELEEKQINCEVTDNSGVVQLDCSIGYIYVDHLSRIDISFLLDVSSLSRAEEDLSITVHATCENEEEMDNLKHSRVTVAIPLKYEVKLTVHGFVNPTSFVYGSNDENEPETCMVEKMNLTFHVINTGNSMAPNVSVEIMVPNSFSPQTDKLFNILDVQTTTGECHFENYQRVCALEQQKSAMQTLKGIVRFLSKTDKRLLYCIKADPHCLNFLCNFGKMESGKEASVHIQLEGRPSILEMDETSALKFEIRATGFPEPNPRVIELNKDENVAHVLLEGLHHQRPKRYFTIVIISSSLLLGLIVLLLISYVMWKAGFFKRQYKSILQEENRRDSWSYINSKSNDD
T1 sequence (P26010 20-798): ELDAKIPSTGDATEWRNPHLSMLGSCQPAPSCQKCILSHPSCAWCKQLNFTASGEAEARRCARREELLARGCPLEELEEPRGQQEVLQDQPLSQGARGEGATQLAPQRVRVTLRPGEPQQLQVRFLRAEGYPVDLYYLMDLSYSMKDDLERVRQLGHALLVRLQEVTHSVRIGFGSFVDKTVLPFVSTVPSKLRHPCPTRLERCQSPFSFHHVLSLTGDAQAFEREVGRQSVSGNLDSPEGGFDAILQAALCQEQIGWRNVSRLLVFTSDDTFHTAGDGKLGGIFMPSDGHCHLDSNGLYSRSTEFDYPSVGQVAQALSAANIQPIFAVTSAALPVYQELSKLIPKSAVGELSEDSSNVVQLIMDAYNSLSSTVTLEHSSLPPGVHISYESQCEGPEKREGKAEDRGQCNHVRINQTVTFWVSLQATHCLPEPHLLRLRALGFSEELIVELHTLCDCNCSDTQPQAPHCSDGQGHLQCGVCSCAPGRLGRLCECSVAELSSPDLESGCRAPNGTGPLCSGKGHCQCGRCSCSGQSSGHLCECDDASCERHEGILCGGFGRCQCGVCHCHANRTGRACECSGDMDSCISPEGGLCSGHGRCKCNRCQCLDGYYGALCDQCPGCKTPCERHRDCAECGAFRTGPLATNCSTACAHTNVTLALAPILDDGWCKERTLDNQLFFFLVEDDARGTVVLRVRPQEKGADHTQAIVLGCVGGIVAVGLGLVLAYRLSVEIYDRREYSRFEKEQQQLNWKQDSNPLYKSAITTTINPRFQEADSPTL
Description: (Test Example) VCAM Antagonistic Activity (VCAM-1/α4β7 Binding Assay):
The capacity of a test substance antagonistic to the binding of lymphoma cell strain RPMI-8866 of human B cells, known to express integrin α 4β7, to VCAM-1 was determined.
(§1) 100 μl/well of a solution (500 ng/ml) of recombinant human VCAM-1 (R & D systems) solution diluted with buffer A (0.1 M NaHCO3, pH 9.6) was added to a micro titer plate having 96 wells (Nunc Maxisorp). After the incubation at 4° C. overnight, unbound VCAM-1 was removed by washing once with PBS. After completion of the washing, a buffer (buffer B) obtained by diluting Block Ace® (Dainippon Pharmaceutical Co., Ltd.) with PBS to ¼ concentration was added in an amount of 150 μl/well. After the incubation at room temperature for 1 hour, buffer B was removed and the plate was washed with PBS once.
RPMI-8866 cells were incubated in DMEM containing 10 μg/ml of Calcein-AM (Wako Pure Chemical Industries, Ltd.) at 37° C. for 30 minutes to label with fluorescence. The cells were again suspended in a binding buffer (20 mM HEPES, DMEM containing 0.1% BSA) containing 4 mM of MnCl2.
(§2) 50 μl of a test substance of various concentrations obtained by the dilution with the binding buffer was added to the plate. Immediately thereafter, 50 μl (final volume: 100 μl/well) of the fluorescent RPMI-8866 cells (4×10^6 cells/ml) were added thereto, and they were incubated at room temperature for 30 minutes. After the shaking on a plate shaker (IKA MTS-4) at 800 rpm for 30 seconds, the solution was immediately removed to remove the unbound cells. The fluorescence quantity of the bound cells remaining in the wells was determined with a fluorescent plate reader (Wallac 1420 ARVO multi-label counter) (filter excitation wave length: 485 nm, emission wave length: 535 nm). The fluorescent strength thus obtained is proportional to the number of RPMI-8866 cells bound to VCAM-1 and remaining on the plate. The binding rate of each test material in various concentrations was determined while the fluorescent strength of the test material-free well was determined to be 100%. The concentration IC50 for the 50% binding inhibition was calculated.

[2] = molecular target: T2, integrin α 4β1 (Homo sapiens, UniProt P05556+P13612); experiment: VCAM antagonistic activity (VCAM-1/α4β1 binding assay), Jurkat cells binding to VCAM-1; assay type: cell-based; conditions: Jurkat cells (human T cells) binding to recombinant human VCAM-1; room temperature, 30 minutes; read-out: VCAM-1/α 4 β 1 linking antagonization activity IC50
T2 construct: cell strain Jurkat (ATCC TIB-152) of human T cells, known to express integrin α 4β1; host or cells: Jurkat (human T cell line)
Description: (Test Example) VCAM Antagonistic Activity (VCAM-1/α4β1 Binding Assay):
The capacity of a test substance antagonistic to the binding of cell strain Jurkat (ATCC TIB-152) of human T cells, known to express integrin α 4β1, to VCAM-1 was determined.
as §1
Jurkat cells were washed with Dulbecco modified Eagle medium (SIGMA, hereinafter referred to as “DMEM”) twice and then incubated in DMEM containing 10 μg/ml of Calcein-AM (Wako Pure Chemical Industries, Ltd.) at 37° C. in dark place for 30 minutes to label with fluorescence. The cells were again suspended in a binding buffer (20 mM HEPES, DMEM containing 0.1% BSA).
as §2, with “Jurkat” for “RPMI-8866”

T2 sequence (P05556 21-798, one chain of several): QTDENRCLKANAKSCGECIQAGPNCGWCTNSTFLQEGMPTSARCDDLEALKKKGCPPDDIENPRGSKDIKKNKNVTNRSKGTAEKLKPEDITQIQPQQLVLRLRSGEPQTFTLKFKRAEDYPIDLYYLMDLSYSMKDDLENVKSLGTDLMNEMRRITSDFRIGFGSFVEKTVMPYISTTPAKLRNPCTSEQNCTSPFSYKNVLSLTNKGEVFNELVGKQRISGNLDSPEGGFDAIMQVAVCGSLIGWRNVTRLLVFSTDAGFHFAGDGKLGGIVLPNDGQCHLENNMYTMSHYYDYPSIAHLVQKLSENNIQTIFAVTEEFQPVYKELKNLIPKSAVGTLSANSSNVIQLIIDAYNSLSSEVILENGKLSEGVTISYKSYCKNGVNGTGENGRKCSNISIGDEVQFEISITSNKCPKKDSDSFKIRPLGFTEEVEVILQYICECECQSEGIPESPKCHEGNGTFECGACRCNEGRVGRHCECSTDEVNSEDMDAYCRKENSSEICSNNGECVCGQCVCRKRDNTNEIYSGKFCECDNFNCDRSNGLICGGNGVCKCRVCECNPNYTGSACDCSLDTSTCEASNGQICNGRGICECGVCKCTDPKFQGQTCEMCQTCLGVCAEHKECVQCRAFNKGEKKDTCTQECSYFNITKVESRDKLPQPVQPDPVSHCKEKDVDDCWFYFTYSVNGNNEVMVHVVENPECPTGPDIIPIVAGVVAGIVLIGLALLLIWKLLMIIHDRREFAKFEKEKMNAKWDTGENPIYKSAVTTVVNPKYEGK

Row | IC50 [1] [nM] | IC50 [2] [nM] | Structure (SMILES)
1 | 100 | 4000 | CC(C)NCCN(c1ccc([N+](=O)[O-])c(C(=O)NC(Cc2ccc(OCc3c(Cl)cccc3Cl)cc2)C(=O)O)c1)C(C)C (stereo not shown) [Example 2, N-(3-(N-isopropylaminoethyl-N′-isopropyl)amino-6-nitrobenzoyl)-O-(2,6-dichlorobenzyl)tyrosine]
2 | 120 | 5500 | CC(C)NCCCN(c1ccc([N+](=O)[O-])c(C(=O)NC(Cc2ccc(OCc3c(Cl)cccc3Cl)cc2)C(=O)O)c1)C(C)C (stereo not shown) [Example 3]
3 | 120 | 3700 | CCCNCCCCN(CCC)c1ccc([N+](=O)[O-])c(C(=O)NC(Cc2ccc(OCc3c(Cl)cccc3Cl)cc2)C(=O)O)c1 (stereo not shown) [Example 4]
4 | 140 | 4900 | CC1CN(c2ccc([N+](=O)[O-])c(C(=O)NC(Cc3ccc(OCc4c(Cl)cccc4Cl)cc3)C(=O)O)c2)C(C)CN1 (stereo not shown) [Example 5]
5 | 150 | 4800 | CCNC/C=C/CN(CC)c1ccc([N+](=O)[O-])c(C(=O)NC(Cc2ccc(OCc3c(Cl)cccc3Cl)cc2)C(=O)O)c1 (stereo not shown) [Example 6]
6 | 160 | 9400 | CCNCCN(CC)c1ccc([N+](=O)[O-])c(C(=O)NC(Cc2ccc(OCc3c(Cl)cccc3Cl)cc2)C(=O)O)c1 (stereo not shown) [Example 7]
7 | 750 | 4000 | O=C(NC(Cc1ccc(OCc2c(Cl)cccc2Cl)cc1)C(=O)O)c1cc(N2CCNCC2)ccc1[N+](=O)[O-] (stereo not shown) [Example 8]
8 | 360 | 4100 | CCCN(C)c1ccc([N+](=O)[O-])c(C(=O)NC(Cc2ccc(OCc3c(Cl)cccc3Cl)cc2)C(=O)O)c1 (stereo not shown) [Example 12]
9 | 140 | 2200 | O=C(NC(Cc1ccc(OCc2c(Cl)cccc2Cl)cc1)C(=O)O)c1cc(N2CCOCC2)ccc1[N+](=O)[O-] (stereo not shown) [Example 18]
10 | 160 | 3300 | O=C1CCN(c2ccc([N+](=O)[O-])c(C(=O)NC(Cc3ccc(OCc4c(Cl)cccc4Cl)cc3)C(=O)O)c2)CC1 (stereo not shown) [Example 21]
11 | 220 | 4600 | O=C(NC(Cc1ccc(OCc2c(Cl)cccc2Cl)cc1)C(=O)O)c1cc(N2CCC(O)CC2)ccc1[N+](=O)[O-] (stereo not shown) [Example 22]
12 | 66 | 2200 | CN(CCO)c1ccc([N+](=O)[O-])c(C(=O)NC(Cc2ccc(OCc3c(Cl)cccc3Cl)cc2)C(=O)O)c1 (stereo not shown) [Example 23]
13 | 750 | 4000 | O=C(NC(Cc1ccc(OCc2c(Cl)cccc2Cl)cc1)C(=O)O)c1ccc(N2CCNCC2)c([N+](=O)[O-])c1 (stereo not shown) [Example 25]
14 | 37 | 2400 | CC(C)NCCN(c1ccc([N+](=O)[O-])c(C(=O)NC(Cc2ccc(NC(=O)c3snnc3-c3ccccc3)cc2)C(=O)O)c1)C(C)C (stereo not shown) [Example 26]
15 | 1.2 | 27 | CSc1ncc(Cl)c(C(=O)Nc2ccc(CC(NC(=O)c3cc(N(CCNC(C)C)C(C)C)ccc3[N+](=O)[O-])C(=O)O)cc2)n1 (stereo not shown) [Example 27]
16 | 1.1 | 23 | CSc1ncc(Cl)c(C(=O)Nc2ccc(C[C@H](NC(=O)c3cc(N(CCNC(C)C)C(C)C)ccc3[N+](=O)[O-])C(=O)O)cc2)n1 [Example 28]
17 | 5.3 | 87 | CSc1ncc(Cl)c(C(=O)Nc2ccc(C[C@H](NC(=O)c3cc(N(CCN(C(C)=O)C(C)C)C(C)C)ccc3[N+](=O)[O-])C(=O)O)cc2)n1 [Example 30]
